From article PMC11822212, “High-throughput screening identifies Aurora kinase B as a critical therapeutic target for Merkel cell carcinoma” (Nature Communications, 2025)
Like-named read-outs stand apart in the source and are kept apart here.

Key:
MCC13 cells (VN-MCC) = experiment: qHTS cell viability (CellTiter-Glo, 72 h; primary and follow-up small molecule screen); assay type: cell-based, human
MCC26 cells (VN-MCC) = experiment: as above; assay type: cell-based, human
UISO cells (VN-MCC) = experiment: as above; assay type: cell-based, human
WAGA cells (VP-MCC) = experiment: as above; assay type: cell-based, human
MKL-1 cells (VP-MCC) = experiment: as above; assay type: cell-based, human
MKL-2 cells (VP-MCC) = experiment: as above; assay type: cell-based, human
HACAT cells = experiment: qHTS cell viability (CellTiter-Glo, 72 h; primary screen), control cell line; assay type: cell-based, human
HEK293T cells = experiment: as above; assay type: cell-based, human
NIH-3T3 cells = experiment: as above; assay type: cell-based, mouse
CRL-7250 cells = experiment: as above; assay type: cell-based
[1] = tested on: MCC cell lines (WAGA, MKL-1, MKL-2, MCC13, MCC26, UISO); experiment: qHTS cell viability, all six MCC cell lines as a group (mean AUC, MCC.avg); assay type: cell-based, human
[2] = tested on: VP-MCC cell lines (WAGA, MKL-1, MKL-2); experiment: qHTS cell viability, VP-MCC cell lines as a group (mean AUC, VP.MCC.avg); assay type: cell-based, human
[3] = tested on: VN-MCC cell lines (MCC13, MCC26, UISO); experiment: qHTS cell viability, VN-MCC cell lines as a group (mean AUC, VN.MCC.avg); assay type: cell-based, human
[4] = tested on: control cell lines (HACAT, HEK293T, CRL-7250, NIH-3T3); experiment: qHTS cell viability, control cell lines as a group (mean AUC, Control.avg); assay type: cell-based
[5] = tested on: six MCC cell lines and four control cell lines; experiment: qHTS cell viability, all 10 cell lines screened; assay type: cell-based
[6] = NPC library, mean AUC of six MCC cell lines
[7] = NPC library, mean AUC of VP-MCC cell lines
[8] = NPC library, mean AUC of VN-MCC cell lines
[9] = NPC library, mean AUC of control cell lines
[10] = MIPE library, 11-point DRC, sheet S2E
[11] = MIPE library, 11-point DRC, control cell line, sheet S2E
[12] = NPC library, 8-point DRC, area under dose-response curve
[13] = NPC library, 8-point DRC, control cell line

COc1cc(/C=C2\CCC/C(=C\c3ccc(O)c(OC)c3)C2=O)ccc1O [Cyclovalone]
MCC13_AUC (MCC13 cells (VN-MCC); NPC library, qHTS dose-response AUC, MCC13): 435.637
Area under the dose-response curve (AUC) MCC13 Replicate 1 (MCC13 cells (VN-MCC); follow-up screen, MCC13, replicate 1): 472.8
Area under the dose-response curve (AUC) MCC13 Replicate 2 (MCC13 cells (VN-MCC); follow-up screen, MCC13, replicate 2): 478.9
Area under the dose-response curve (AUC) MCC13 Replicate 3 (MCC13 cells (VN-MCC); follow-up screen, MCC13, replicate 3): 414.2
MCC26_AUC (MCC26 cells (VN-MCC); NPC library, qHTS dose-response AUC, MCC26): 456.812
Area under the dose-response curve (AUC) MCC26 Replicate 1 (MCC26 cells (VN-MCC); follow-up screen, MCC26, replicate 1): 446.8
Area under the dose-response curve (AUC) MCC26 Replicate 2 (MCC26 cells (VN-MCC); follow-up screen, MCC26, replicate 2): 450.2
Area under the dose-response curve (AUC) MCC26 Replicate 3 (MCC26 cells (VN-MCC); follow-up screen, MCC26, replicate 3): 451.9
UISO_AUC (UISO cells (VN-MCC); NPC library, qHTS dose-response AUC, UISO): 420.96
Area under the dose-response curve (AUC) UISO Replicate 1 (UISO cells (VN-MCC); follow-up screen, UISO, replicate 1): 445.7
Area under the dose-response curve (AUC) UISO Replicate 2 (UISO cells (VN-MCC); follow-up screen, UISO, replicate 2): 433.0
Area under the dose-response curve (AUC) UISO Replicate 3 (UISO cells (VN-MCC); follow-up screen, UISO, replicate 3): 430.4
WAGA_AUC (WAGA cells (VP-MCC); NPC library, qHTS dose-response AUC, WAGA): 394.525
Area under the dose-response curve (AUC) WAGA Replicate 1 (WAGA cells (VP-MCC); follow-up screen, WAGA, replicate 1): 469.4
Area under the dose-response curve (AUC) WAGA Replicate 2 (WAGA cells (VP-MCC); follow-up screen, WAGA, replicate 2): 402.6
Area under the dose-response curve (AUC) WAGA Replicate 3 (WAGA cells (VP-MCC); follow-up screen, WAGA, replicate 3): 413.8
MKL1_AUC (MKL-1 cells (VP-MCC); NPC library, qHTS dose-response AUC, MKL1): 383.35
Area under the dose-response curve (AUC) MKL-1 Replicate 1 (MKL-1 cells (VP-MCC); follow-up screen, MKL-1, replicate 1): 414.7
Area under the dose-response curve (AUC) MKL-1 Replicate 2 (MKL-1 cells (VP-MCC); follow-up screen, MKL-1, replicate 2): 411.0
Area under the dose-response curve (AUC) MKL-1 Replicate 3 (MKL-1 cells (VP-MCC); follow-up screen, MKL-1, replicate 3): 407.6
MKL2_AUC (MKL-2 cells (VP-MCC); NPC library, qHTS dose-response AUC, MKL2): 366.589
Area under the dose-response curve (AUC) MKL-2 Replicate 1 (MKL-2 cells (VP-MCC); follow-up screen, MKL-2, replicate 1): 366.1
Area under the dose-response curve (AUC) MKL-2 Replicate 2 (MKL-2 cells (VP-MCC); follow-up screen, MKL-2, replicate 2): 391.5
Area under the dose-response curve (AUC) MKL-2 Replicate 3 (MKL-2 cells (VP-MCC); follow-up screen, MKL-2, replicate 3): 417.0
HACAT_AUC (HACAT cells; NPC library, qHTS dose-response AUC, HACAT control): 441.291
HEK293T_AUC (HEK293T cells; NPC library, qHTS dose-response AUC, HEK293T control): 422.832
NIH3T3_AUC (NIH-3T3 cells; NPC library, qHTS dose-response AUC, NIH3T3 control): 447.034
CRL7250_AUC (CRL-7250 cells; NPC library, qHTS dose-response AUC, CRL7250 control): 455.387
MCC_Avg_AUC [1, 6]: 409.645
VP-MCC_Avg_AUC [2, 7]: 381.488
Control-VP-MCC ([2]; NPC library, therapeutic window: Control avg AUC minus VP-MCC avg AUC): 60.1479
VN-MCC_Avg_AUC [3, 8]: 437.803
Control-VN-MCC ([3]; NPC library, therapeutic window: Control avg AUC minus VN-MCC avg AUC): 3.833
Control_Avg_AUC [4, 9]: 441.636
Control-MCC ([5]; NPC library, therapeutic window: Control avg AUC minus MCC avg AUC): 31.9905

CN(C)CCc1c[nH]c2ccc(O)cc12 [Bufotenine]
MCC13_AUC (MCC13 cells (VN-MCC)): 457.919
MCC26_AUC (MCC26 cells (VN-MCC)): 406.205
UISO_AUC (UISO cells (VN-MCC)): 423.411
WAGA_AUC (WAGA cells (VP-MCC)): 422.913
MKL1_AUC (MKL-1 cells (VP-MCC)): 439.853
MKL2_AUC (MKL-2 cells (VP-MCC)): 417.248
HACAT_AUC (HACAT cells): 494.192
HEK293T_AUC (HEK293T cells): 488.2
NIH3T3_AUC (NIH-3T3 cells): 494.482
CRL7250_AUC (CRL-7250 cells): 497.008
MCC_Avg_AUC [1]: 427.925
Control-VP-MCC [2]: 66.7991
VP-MCC_Avg_AUC [2]: 426.671
Control-VN-MCC [3]: 64.2925
VN-MCC_Avg_AUC [3]: 429.178
Control_Avg_AUC [4]: 493.471
Control-MCC [5]: 65.5458

CC(C)(C)OC(=O)Nc1ccc(-c2cc(C(=O)NCCCCCCC(=O)NO)no2)cc1 [ISOX]
MCC13_AUC (MCC13 cells (VN-MCC); [10]): 413.98
MCC26_AUC (MCC26 cells (VN-MCC); [10]): 447.653
UISO_AUC (UISO cells (VN-MCC); [10]): 418.415
WAGA_AUC (WAGA cells (VP-MCC); [10]): 354.914
MKL1_AUC (MKL-1 cells (VP-MCC); [10]): 349.979
MKL2_AUC (MKL-2 cells (VP-MCC); [10]): 356.229
HACAT_AUC (HACAT cells; [11]): 439.928
HEK293T_AUC (HEK293T cells; [11]): 382.485
NIH3T3_AUC (NIH-3T3 cells; [11]): 388.752
CRL7250_AUC (CRL-7250 cells; [11]): 411.627
MCC_Avg_AUC ([1]; MIPE library, mean AUC of six MCC cell lines, sheet S2E): 390.195
Control-VP-MCC ([2]; MIPE library, Control AUC minus VP-MCC AUC (therapeutic window), sheet S2E): 51.9911
VP-MCC_Avg_AUC ([2]; MIPE library, mean AUC of VP-MCC cell lines, sheet S2E): 353.707
Control-VN-MCC ([3]; MIPE library, Control AUC minus VN-MCC AUC (therapeutic window), sheet S2E): -20.9846
VN-MCC_Avg_AUC ([3]; MIPE library, mean AUC of VN-MCC cell lines, sheet S2E): 426.683
Control_Avg_AUC ([4]; MIPE library, mean AUC of control cell lines, sheet S2E): 405.698
Control-MCC ([5]; MIPE library, Control AUC minus MCC AUC (therapeutic window), sheet S2E): 15.5032

O=C1CC2(CCCC2)CC(=O)N1CCCCN1CCN(c2ncccn2)CC1 [Buspirone]
MCC13_AUC (MCC13 cells (VN-MCC); [12]): 448.981
MCC26_AUC (MCC26 cells (VN-MCC); [12]): 427.549
UISO_AUC (UISO cells (VN-MCC); [12]): 435.953
WAGA_AUC (WAGA cells (VP-MCC); [12]): 446.274
MKL1_AUC (MKL-1 cells (VP-MCC); [12]): 457.095
MKL2_AUC (MKL-2 cells (VP-MCC); [12]): 407.552
HACAT_AUC (HACAT cells; [13]): 483.772
HEK293T_AUC (HEK293T cells; [13]): 489.604
NIH3T3_AUC (NIH-3T3 cells; [13]): 490.08
CRL7250_AUC (CRL-7250 cells; [13]): 487.221
MCC_Avg_AUC [1, 6]: 437.234
Control-VP-MCC ([2]; NPC library, Control AUC minus VP-MCC AUC (therapeutic window)): 50.6954
VP-MCC_Avg_AUC [2, 7]: 436.974
Control-VN-MCC ([3]; NPC library, Control AUC minus VN-MCC AUC (therapeutic window)): 50.1753
VN-MCC_Avg_AUC [3, 8]: 437.494
Control_Avg_AUC [4, 9]: 487.669
Control-MCC ([5]; NPC library, Control AUC minus MCC AUC (therapeutic window)): 50.4353
